Experimental data published in patent US4198424A, “Substituted 1-phenyl-2-pyrrolidin-2-yl-ethanols, their synthesis, their use and their compositions” (Byk Gulden Lomberg Chemische Fabrik GmbH, priority 1977, dated 1980).

Experiments:
[1] = Determination of the lethal effect (LD50, oral, mouse); settings: in vivo, per os, 48 hours observation
Experimental: The toxicity investigations were carried out on female NMRI mice: body weight 22 to 26 g. The animals received food and water (Altromin®) ad libitum. The substances to be tested were administered orally with the oesophageal sound as solutions of various concentration in a volume of from 10 to 20 ml/kg; 5 animals per dose were kept in Makrolon® cages, Type II. The observation duration was 48 hours. The DL50, the dose with which 50% of the animals died, was determined graphically from the dose effect curve.

albino mice [2] = test: Hot plate test (analgesia, mouse); assay type: in vivo; settings: po, per os; for ED50: dose prolonging reaction time by 50%; for ED40: *ED40 values, read-out: ED40 Hot plate (values marked *)
Experimental: (a) Hot plate test: female albino mice were placed on a 50° C. hot plate and the reaction time until they licked their paws was recorded with a stop watch. Normal values lie in the range of from 7 to 8 seconds. The substances tested cause delayed reaction to the heat stimulus, i.e. reduced thermal-pain sensitivity. The dose which prolongs the reaction time by 50% was determined. Literature: Eddy, N. B., and Leimbach, D., J. Pharmacol. Exp. Ther., 107 (1953) 385.

albino mice [3] = test: Tail-Flick test (analgesia, mouse); assay type: in vivo; settings: po, per os, dose prolonging reaction time by 50%
Experimental: (§1) (b) Tail-Flick test: a thermal pain is caused at the tail root of female albino mice or rats with a focused heat ray, and the time until the tail is drawn away is recorded with a stop watch. Normally, it lies in the range of from 4 to 5 seconds. The substances tested cause delayed reaction to the heat pain, i.e. reduced thermal-pain reaction. The dose which prolongs the reaction time by 50% was determined. Literature: D'Amour, F. E., and Smith, D. L., J. Pharmacol. Exp. Ther., 72 (1941) 74.

albino mice [4] = test: Writhing test (acetic acid writhing, analgesia, mouse); assay type: in vivo; settings: po, per os; for ED50: dose reducing number of writhings by 50%; for ED40: *ED40 values, read-out: ED40 Writhing (values marked *)
Experimental: (c) Writhing test (acetic acid writhing): intraperitoneal injection of 0.2 ml/20 g mouse of a 0.75% strength acetic acid solution induces (in albino mice) a typical syndrome, called writhing, which proceeds over the body with dorsal flection. These writhings, which occur in the course of the first half hour after administration, are counted in the space of time of from 5 to 20 minutes after administration. The substances tested cause a reduction of the number of writhing syndromes. […] Literature: Koster, Anderson, Fed. Proc., 18 (1959) 42.

albino mice [5] = test: Tail-Flick test (analgesia, mouse); assay type: in vivo; settings: po, per os, *ED40 values, read-out: ED40 Tail-Flick (values marked *)
rats = test: Tail-Flick test (analgesia, rat); assay type: in vivo; settings: po, per os, dose prolonging reaction time by 50%
Experimental: as §1

mice = test: Withdrawal jumping of mice after treatment and intraperitoneal application of naloxone; assay type: in vivo, mouse; settings: for % of the animals reacting with "jumping": naloxone intraperitoneal, 3 and 6 given 200 mg/kg twice daily over 5 weekdays, NaCl control 20; for withdrawal jumping after naloxone (in words): 200 mg/kg twice daily over 5 weekdays, naloxone 30 mg/kg i.p. 1 hour after last dose
Experimental: (§2) According to Way et al. [J. Pharmacol. Exp. Ther., 167 (1969) 1] mice, which are dependent on analgesics with a morphine-like effect, react with withdrawal jumping immediately after intraperitoneal administration of naloxone. According to Saelens and co-workers [Arch. Int. Pharmacodyn. […] 2 cannot be tested accordingly because of its toxicity.
(§3) 3 and 6 were administered to mice [200 mg/kg twice daily over 5 weekdays].

[6] = Saelens et al., Arch. Int. Pharmacodyn. Ther., 190 (1971) 213; cited from earlier work
[7] = Withdrawal jumping of mice after treatment and intraperitoneal application of naloxone; assay type: in vivo, mouse; settings: mouse, in vivo, not testable for jumping, read-out: lethality in withdrawal jumping test
Experimental: as §2, §3

SMILES	LD50 at 48 h [1] [mg/kg]	ED50 (albino mice [2]) [mg/kg]	ED50 (albino mice [3]) [mg/kg]	ED50 (albino mice [4]) [mg/kg]	ED40 (albino mice [2]) [mg/kg]	ED40 (albino mice [5]) [mg/kg]	ED50 (rats) [mg/kg]	% of the animals reacting with "jumping" (mice) [%]	dependence development [6]	ED40 (albino mice [4]) [mg/kg]	withdrawal jumping after naloxone (in words) (mice)	mortality [7] [%]
COc1cccc([C@H](O)C[C@@H]2CCCN2C)c1 (relative stereo) [Compound 4, (R*,S*)-1-(3-methoxyphenyl)-2-(1-methyl-2-pyrrolidinyl)-ethanol]	420	100	60	50								
CN1CCCC1CC(O)c1cccc(Cl)c1 (stereo not drawn) [Compound 11, 1-(3-chlorophenyl)-2-(1-methyl-2-pyrrolidinyl)-ethanol]	330		65	125								
CN1CCCC1CC(O)c1cccc(O)c1 (stereo not drawn) [Compound 10, 1-(3-hydroxyphenyl)-2-(1-methyl-2-pyrrolidinyl)-ethanol]	420			125								
COc1cccc(C(O)CC2CCCN2C(C)C)c1 (stereo not drawn) [Compound 9, 2-(1-isopropyl-2-pyrrolidinyl)-1-(3-methoxyphenyl)ethanol]	340			75	100	75						
CCC(=O)O[C@](Cc1ccccc1)(c1ccccc1)[C@H](C)CN(C)C [Compound 1, dextropropoxyphene, reference compound]	140	15	25	30			25	100	a dependence development is evidenced			
Cc1cccc([C@H](O)C[C@H]2CCCN2C)c1 (relative stereo) [Compound 8, (R*,R*)-1-(3-methylphenyl)-2-(1-methyl-2-pyrrolidinyl)-ethanol]	320		10		100					75		
COc1cccc(C(O)CC2CCCN2C)c1 (stereo not drawn) [Compound 3, 1-(3-methoxyphenyl)-2-(1-methylpyrrolidin-2-yl)-ethanol]	600	30	25	15			7	20			did not lead to withdrawal jumping	
COc1cccc([C@@H](C[C@@H]2CCCN2C)OC(C)=O)c1 (relative stereo) [Compound 13, (R*,S*)-acetic acid-[1-(3-methoxyphenyl)-2-(1-methyl-2-pyrrolidinyl)-ethyl]-ester]	440									75		
CCCCCCN1CCCC1CC(O)c1cccc(OC)c1 (stereo not drawn) [Compound 12, 2-(1-n-hexyl-2-pyrrolidinyl)-1-(3-methoxyphenyl)-ethanol]	180		70							75		
CN1CCOC(c2ccccc2)c2ccccc2C1 (stereo not drawn) [Compound 2, nefopam, reference compound]	180	30	20	25			10					80
Cc1cccc([C@H](O)C[C@@H]2CCCN2C)c1 (relative stereo) [Compound 7, (R*,S*)-1-(3-methylphenyl)-2-(1-methyl-2-pyrrolidinyl)-ethanol]	300	100	50							75		
COc1cccc([C@H](O)C[C@H]2CCCN2C)c1 (relative stereo) [Compound 5, (R*,R*)-1-(3-methoxyphenyl)-2-(1-methyl-2-pyrrolidinyl)ethanol]	490	50	70	40								
Cc1cccc(C(O)CC2CCCN2C)c1 (stereo not drawn) [Compound 6, 2-(1-methylpyrrolidin-2-yl)-1-(3-tolyl)ethanol]	420	100	35	75			10	10			did not lead to withdrawal jumping	
